Laboratory results published in patent US20170240592A1, “GADD45BETA/MKK7 INHIBITOR FOR THE TREATMENT OF A RESISTANT HAEMATOLOGICAL MALIGNANCY” (IMPERIAL INNOVATIONS LIMITED, priority 2014, published 2017).

Legend:
[1] = tested on: multiple myeloma cell lines; test: [3H]thymidine incorporation assay, survival of multiple myeloma cell lines; format: cell-based, human; settings: 6-day treatment; all lines tested apart from RPMI-8226 and KMM-1
Experimental: (§1) Values express the percentage of live cells present in the treated cultures relative to the live cells present in the respective untreated cultures and denote means±SD ([WM]; n=3). UT, untreated. […] Values express the percentage of inhibition of Gadd45β binding to MKK7 relative to the binding measured in the absence of peptide. […] Co-immunoprecipitations (IP) were performed using an anti-FLAG antibody (a-FLAG); western blots (WB) were developed using an anti-HA or an anti-MKK7 antibody, as shown.
[^3H]Thymidine incorporation and trypan blue exclusion assays were performed using standard methods (Mauro et al., 2011). […] Apoptosis analyses were performed using PI staining as described in Mauro et al., 2011. Additional details are provided in the Supplemental Experimental Procedures.

[2] = tested on: mouse LN cells and splenocytes; test: trypan blue exclusion assay, survival of mouse LN cells and splenocytes; format: cell-based; settings: DTP3 100 μM, PS-1145 20 μM, 144 hr
Experimental: as §1
[…] Cell viability was measured by using trypan blue exclusion or [^3H]thymidine incorporation assays performed in the manner described above (Mauro et al., 2011; Griffiths and Sundaram, 2011; Arnold et al., 2008), as indicated.

Gadd45β binding to MKK7 = target: T1, Gadd45β binding to MKK7 (Homo sapiens, UniProt O14733); test: ELISA Gadd45β/MKK7 competition assay
T1 construct: Full-length human (h)MKK7 was expressed as a protein fused to an N-terminal GST tag (GST-MKK7); made in house
T1 sequence (O14733 1-419): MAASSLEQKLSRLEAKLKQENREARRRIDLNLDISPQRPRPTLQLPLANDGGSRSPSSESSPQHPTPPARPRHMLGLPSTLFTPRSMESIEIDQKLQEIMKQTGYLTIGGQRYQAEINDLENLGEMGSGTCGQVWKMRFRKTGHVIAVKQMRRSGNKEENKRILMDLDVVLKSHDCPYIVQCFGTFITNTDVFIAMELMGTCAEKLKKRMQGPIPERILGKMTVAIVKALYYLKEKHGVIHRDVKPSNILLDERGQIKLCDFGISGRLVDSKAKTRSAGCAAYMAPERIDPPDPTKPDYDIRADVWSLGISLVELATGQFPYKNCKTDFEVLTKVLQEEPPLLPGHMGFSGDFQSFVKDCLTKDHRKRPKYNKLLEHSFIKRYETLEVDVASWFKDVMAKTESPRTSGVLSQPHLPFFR
Experimental: as §1
Proteins were purified as described in Tornatore et al., 2008. Individual peptides were synthesised as reported in Sandomenico et al., 2012. […] Peptide identity and purity were determined using liquid chromatography-mass spectrometry (LC-MS). […]
Recombinant proteins were purified as described previously (Tornatore et al., 2008). Briefly, full-length human (h)GADD45β was expressed as a protein fused to a poly-histidine (His6) tag and purified by affinity chromatography using His-Trap columns (GE Healthcare). […] Full-length human (h)MKK7 was expressed as a protein fused to an N-terminal GST tag (GST-MKK7), purified using GST-Trap as above, and then used for ELISA analyses. […] The kinase domain (KD) of hMKK7 (amino acids 101-405) was expressed as a protein fused to an N-terminal His6 tag in E. coli (BL21[DE3] strain) using the pETDuet-1 vector (Novagen). […]

thermodynamic solubility = format: physicochemical; settings: PBS pH 7.4, at 37° C. for 14 days
Experimental: (§2) In vitro pharmacokinetic assays were performed according to established, in-house protocols and included: plasma stability (human), thermodynamic solubility (PBS pH 7.4, at 37° C. for 14 days), microsomal stability (human), plasma protein binding (PPB; mouse and human), and distribution coefficient (Log D). In vivo pharmacokinetic analyses were also performed at Cyprotex according to established, in-house protocols. Briefly, the peptides were dissolved in PBS and administered by single intravenous injection to CD1 male mice at the dose of 10 mg/kg (25-30 g of total body weight; n=3 mice per time point per compound). Blood samples were collected in heparinized tubes at up to 7 time points after this injection (i.e. 0.08, 0.25, 0.5, 1, 2, 4 and 8 hr), and the plasma concentrations of the test peptide were determined at each time point by LC-MS/MS, using a five-point standard curve covering a peptide concentration range from 3 to 3,000 ng/mL. Standard curves were prepared using blank plasma matrices and treated in the same manner as the test samples. […] Values were calculated from the data of the peptide plasma concentration versus time curves using a non-compartmental model analysis, as described elsewhere (Groulx, 2006; Landaw and Di Stefano 3rd, 1982). […]

plasma stability (human) = format: in vitro ADME
Experimental: as §2

U266 cells = test: [3H]thymidine incorporation assay, DTP3 and bortezomib as single agents or in combination, U266; settings: FA 0.5; DTP3 3 nM for 6 days, bortezomib last 48 hr; Chou-Talalay
Experimental: (§3) Treatments with DTP3 were for 6 days; bortezomib was added to the cell cultures 48 hr prior to the measurement of cell viability. For the combination treatment, DTP3 was used at the concentrations of 3 nM in U266 cells and of 10 nM in KMS-12 cells, whereas bortezomib was used at increasing concentrations, as shown.
Viability data from the experiment shown in FIG. 12 were converted into values representing the fraction of cells affected (FA) equaling 0.5 in the drug-treated cultures compared with untreated cultures, and the interaction of DTP3 with bortezomib was analysed according to the Chou-Talalay method (Chou, 2006). Also shown are the drug concentrations giving the FA value of 0.5 and the description of the CI. […]
(§4) [^3H]Thymidine incorporation assays were performed using standard protocols (Griffiths and Sundaram, 2011). […] At 24, 72 or 144 hr, cells were incubated for an additional 16 hr with 0.037 MBq/well of [^3H]thymidine (Amersham), and then harvested onto glass fibre filter mats using a 96-well plate automated Tomtec cell harvester (Receptor Technologies) and analysed by liquid scintillation spectroscopy with a LKB Wallac Trilux Microbeta 3 b-counter (PerkinElmer). Values were expressed as the percentage of the counts per minute (cpm) measured in the treated cultures relative to the cpm measured in the respective untreated cultures. […]

KMS-12 cells = test: [3H]thymidine incorporation assay, DTP3 and bortezomib as single agents or in combination, KMS-12
Experimental: as §3
Viability data from the experiment shown in FIG. 12 were converted into values representing the fraction of cells affected (FA) equaling 0.5 in the drug-treated cultures compared with untreated cultures, and the interaction of DTP3 with bortezomib was analysed according to the Chou-Talalay method (Chou, 2006). Also shown are the drug concentrations giving the FA value of 0.5 and the description of the CI. Based on the Chou-Talalay equation (Chou, 2006), synergy is present when the CI is less than 1.0 (where values between 0.3 and 0.7 denote synergism, and values between 0.1 and 0.3 denote strong synergism); the combination is additive when CI equals 1.0, and antagonistic when it is more than 1.0 (Chou, 2006).
as §4
The activities of DTP3 and bortezomib in the U266 and KMS-12 myeloma cell lines, both as single agents and in combination, were determined using [^3H]thymidine incorporation assays, performed as described above in “Cell Proliferation, Cell Death, and Apoptosis Assays”. The IC50 values of bortezomib as single agent were determined at 48 hr using 9 concentrations of drug, ranging from 0.1 to 1,000 nM.

CC(=O)N[C@H](Cc1ccc(O)cc1)C(=O)N[C@H](CCCNC(=N)N)C(=O)N[C@H](Cc1ccccc1)C(N)=O [DTP3, Acetyl-Tyr-Arg-Phe-NH2]
cytotoxic activity in multiple myeloma cell lines [1]: potent and selective capacity to kill multiple myeloma cells via apoptosis | toxicity to normal cells compared with PS-1145 [2]: far lesser toxicity to normal cells than the IKKβ inhibitor PS-1145 | Gadd45β/MKK7 inhibitor activity (Gadd45β binding to MKK7): sub-nM | stability in vitro (Gadd45β binding to MKK7; before and after 48-hr pre-incubation with human serum at 37° C.): high stability in vitro | aqueous solubility (thermodynamic solubility): high aqueous solubility | stability in human serum (plasma stability (human)): very high stability | combination index (CI) with bortezomib (U266 cells): 0.21 | combination index (CI) with bortezomib (KMS-12 cells; FA 0.5, DTP3 10 nM for 6 days, bortezomib last 48 hr, Chou-Talalay): 0.56 | description of the CI (KMS-12 cells; combination with bortezomib): synergism (values between 0.3 and 0.7 denote synergism)
